{"source": "patent US8211633B2", "about": "“Viral variants with altered susceptibility to nucleoside analogs and uses thereof” (priority 2002, dated 2012)", "key": {"[1]": {"test": "Serum ALT level in treated patient A", "assay_type": "in vivo, human", "details": "on LMV", "source_text": "(§1) Patient A is a person with chronic hepatitis B presented on Day 0 (9 Jul. 1999) with raised serum HBV DNA levels (>2000 pg/ml) and was commenced on LMV treatment immediately (FIG. 2). The patient A was HBsAg positive and anti-HBe positive. Following the initiation of LMV treatment the HBV DNA levels fell to 8 pg/ml over 54 days of therapy. […] By Day 241 the serum ALT peaked at 741 IU/l. The HBV DNA was sequenced and LMV resistant virus was detected. […] The patient was started on open label ETV plus LMV."}, "HBV [2]": {"test_system": "HBV", "test": "Serum HBV DNA level in treated patients (Digene Hybrid Capture II capture hybridization assay)", "assay_type": "in vivo, human", "details": "for HBV DNA: patient A, on LMV", "source_text": "as §1\nPatient B is a liver transplant patient. […] The patient was treated with LMV prior to ETV. The patient is currently on ETV treatment. […] The HBV DNA from this sample was further characterized by sequencing.\nHepatitis B surface antigen (HBsAg), hepatitis B e antigen (HBeAg), anti-HBe and hepatitis B core antigen (HBcAg) specific IgG and IgM were measured using commercially available immunoassays (Abbott Laboratories, North Chicago, Ill., USA). Hepatitis B viral DNA levels were measured using a capture hybridization assay according to the manufacturer's directions (Digene Hybrid Capture II, Digene Diagnostics Inc., Beltsville, Md.). The manufacturers stated cut-off for detecting HBV viremia in clinical specimens was 0.7×10^6 copies/ml or 2.5 pg/ml, [Hendricks D A, et al., Am J Clin Pathol 104: 537-46, 1995]."}, "WHV": {"test_system": "WHV", "details": "chronically-infected woodchucks; cited from earlier work"}, "[3]": {"test_system": "HBV encoding rtI169T+rtV173L+rtL180M+rtM204V", "test": "Antiviral testing with recombinant HBV/baculovirus in HepG2 cells, replicative intermediates by quantitative real-time PCR, quadruple mutant", "assay_type": "cell-based, hepatitis B virus", "details": "quadruple mutant rtI169T+rtV173L+rtL180M+rtM204V vs wild type; especially at concentrations up to 0.5 μM ETV; FIG. 11", "description": "The sensitivity/resistance profile of HBV mutants to entecavir was examined in vitro using recombinant HBV/baculovirus. The procedure for analysing the resistance profile is outlined in the following Examples 7-14.\nSf21 insect cells were maintained in supplemented Grace's insect medium further supplemented with 10% v/v heat-inactivated fetal bovine serum (Gibco BRL, Gaithersburg, Md.) in humidified incubator at 28 C with CO2. HepG2 cells were maintained in minimal essential medium supplemented with 10% v/v heat-inactivated fetal bovine serum (MEM-FBS). HepG2 cells were grown in humidified 37° C. incubators at 5% v/v CO2.\nThe recombinant HBV/baculovirus system used for antiviral testing has been previously described (Delaney et al., Antimicrob Agents Chemother 45(6): 1705-[…], 2001). […] The nucleotide sequence of the plasmid and the point mutations generated by site directed mutagenesis were confirmed by sequencing using the ABI Prism Big Dye Terminator Cycle Sequencing Ready Reaction Kit according to the manufacturer's specifications (Perkin Elmer, Cetus Norwalk, Conn.). […]\nHepG2 cells were seeded at approximately 20-40% confluency and then were grown for 16-24 hours before infection. On the day of infection, triplicate plates of cells were trypsinized, and viable cell number was determined with a hemocytometer using Trypan blue exclusion. […]"}, "HBV [4]": {"test_system": "HBV", "details": "four week dose-escalation trial; highest dose tested (1 mg/daily); cited from earlier work"}, "[5]": {"details": "day 382 post LMV treatment, day blinded ETV vs LMV phase started"}}}
{"smiles": "Nc1ccn([C@@H]2CS[C@H](CO)O2)c(=O)n1", "note": "[LMV, (−)-β-2′-deoxy-3′-thiacytidine]", "values": [{"measurement": "ALT", "setting": "[1]; day 54 post LMV treatment", "value": 510, "unit": "IU/L"}, {"measurement": "ALT", "setting": "[1]; day 87 post LMV treatment", "value": 211, "unit": "IU/L"}, {"measurement": "ALT", "setting": "[1]; day 115 post LMV treatment", "value": 106, "unit": "IU/L"}, {"measurement": "ALT", "setting": "[1]; day 173 post LMV treatment", "value": 186, "unit": "IU/L"}, {"measurement": "ALT", "setting": "[1]; day 199 post LMV treatment", "value": 233, "unit": "IU/L"}, {"measurement": "ALT", "setting": "[1]; day 241 post LMV treatment", "value": 741, "unit": "IU/L"}, {"measurement": "ALT", "setting": "[1]; day 283 post LMV treatment", "value": 334, "unit": "IU/L"}, {"measurement": "ALT", "setting": "[1]; day 312 post LMV treatment", "value": 238, "unit": "IU/L"}, {"measurement": "ALT", "setting": "[1]; day 348 post LMV treatment", "value": 349, "unit": "IU/L"}, {"measurement": "ALT", "setting": "[1]; [5]", "value": 317, "unit": "IU/L"}, {"measurement": "HBV DNA", "setting": "HBV [2]; day 54 post LMV treatment", "value": 8, "unit": "pg/mL"}, {"measurement": "HBV DNA", "setting": "HBV [2]; day 173 post LMV treatment", "value": 837, "unit": "pg/mL"}, {"measurement": "HBV DNA", "setting": "HBV [2]; day 199 post LMV treatment", "value": 1826, "unit": "pg/mL"}, {"measurement": "HBV DNA", "setting": "HBV [2]; day 241 post LMV treatment", "value": 930, "unit": "pg/mL"}, {"measurement": "HBV DNA", "setting": "HBV [2]; day 283 post LMV treatment", "value": 1631, "unit": "pg/mL"}, {"measurement": "HBV DNA", "setting": "HBV [2]; day 312 post LMV treatment", "value": 1539, "unit": "pg/mL"}, {"measurement": "HBV DNA", "setting": "HBV [2]; day 348 post LMV treatment", "value": 1605, "unit": "pg/mL"}, {"measurement": "HBV DNA", "setting": "HBV [2]; [5]", "value": 1303, "unit": "pg/mL"}]}
{"smiles": "C=C1[C@H](CO)[C@@H](O)C[C@@H]1n1cnc2c(=O)[nH]c(N)nc21", "note": "[ETV]", "values": [{"measurement": "efficacy against WHV", "setting": "WHV", "value": "demonstrated efficacy"}, {"measurement": "sensitivity to ETV (HBV DNA replicative intermediates by quantitative PCR)", "setting": "[3]", "value": "reduced sensitivity to ETV"}, {"measurement": "mean reduction in viremia", "setting": "HBV [4]", "value": 2.5, "unit": "log10"}, {"measurement": "HBV DNA levels", "setting": "HBV [2]; patient B (liver transplant, LMV before ETV), during ETV treatment", "value": "less than 5 pg/ml"}, {"measurement": "HBV DNA levels", "setting": "HBV [2]; patient B, at 532 days ETV treatment (3857 days post transplant), rise", "value": 993, "unit": "pg/mL"}]}
